# In US9796711B2, “Substituted pyrazolo[3,4-b]pyridin-6-carboxylic acids and method of use” (AbbVie S.àr.l., priority 2015, dated 2017):
# How the values were obtained:
# ΔF508-CFTR [1] = target: T1, ΔF508-CFTR (Homo sapiens, UniProt P13569, DEL508-508); experiment: CFTR cell surface levels using HRP-tagged ΔF508-CFTR expressing CFBE cells, intrinsic corrector capacity; type: cell-based
# T1 construct: host or cells: CFBE41o-, doxycycline-inducible
# Method in brief: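 Here the cells express ΔF508-CFTR with horseradish peroxidase inserted in extracellular loop 4, so only rescued channel at the surface gives luminescent signal. Compounds act on their own, 20 h at the reduced temperature of 33 °C; values are percent activity relative to DMSO and a 3 μM corrector.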
# ΔF508-CFTR [2] = target: T1, ΔF508-CFTR; experiment: CFTR cell surface levels using HRP-tagged ΔF508-CFTR expressing CFBE cells, in the presence of a co-corrector; type: cell-based
# Method in brief: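 Cells were seeded with 0.5 μg/mL doxycycline and held 68 h at 37 °C. Test compounds plus 3 μM co-corrector (final 0.1% DMSO) were then added for 20 h at 33 °C. Washed cells received HRP substrate, and luminescence was normalized between DMSO and 3 μM co-corrector controls.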
# [3] = HRP-tagged ΔF508-CFTR CFBE41o- cells, compounds alone (intrinsic corrector capacity), 20 hours at 33° C., positive control 3 μM corrector
# [4] = HRP-tagged ΔF508-CFTR CFBE41o- cells, compounds alone (intrinsic corrector capacity), 20 hours at 33° C., read-out: EC50
# [5] = HRP-tagged ΔF508-CFTR expressing CFBE cells, in the presence of 3 μM co-corrector
# [6] = HRP-tagged ΔF508-CFTR expressing CFBE cells, in the presence of 3 μM co-corrector, read-out: EC50
# [7] = HRP-tagged ΔF508-CFTR expressing CFBE cells, intrinsic corrector capacity (no co-corrector), 33° C., 20 hours
# [8] = HRP-tagged ΔF508-CFTR expressing CFBE cells, intrinsic corrector capacity (no co-corrector), 33° C., 20 hours, read-out: EC50
# T1 sequence (P13569 with tags, fused parts or gaps DEL508-508): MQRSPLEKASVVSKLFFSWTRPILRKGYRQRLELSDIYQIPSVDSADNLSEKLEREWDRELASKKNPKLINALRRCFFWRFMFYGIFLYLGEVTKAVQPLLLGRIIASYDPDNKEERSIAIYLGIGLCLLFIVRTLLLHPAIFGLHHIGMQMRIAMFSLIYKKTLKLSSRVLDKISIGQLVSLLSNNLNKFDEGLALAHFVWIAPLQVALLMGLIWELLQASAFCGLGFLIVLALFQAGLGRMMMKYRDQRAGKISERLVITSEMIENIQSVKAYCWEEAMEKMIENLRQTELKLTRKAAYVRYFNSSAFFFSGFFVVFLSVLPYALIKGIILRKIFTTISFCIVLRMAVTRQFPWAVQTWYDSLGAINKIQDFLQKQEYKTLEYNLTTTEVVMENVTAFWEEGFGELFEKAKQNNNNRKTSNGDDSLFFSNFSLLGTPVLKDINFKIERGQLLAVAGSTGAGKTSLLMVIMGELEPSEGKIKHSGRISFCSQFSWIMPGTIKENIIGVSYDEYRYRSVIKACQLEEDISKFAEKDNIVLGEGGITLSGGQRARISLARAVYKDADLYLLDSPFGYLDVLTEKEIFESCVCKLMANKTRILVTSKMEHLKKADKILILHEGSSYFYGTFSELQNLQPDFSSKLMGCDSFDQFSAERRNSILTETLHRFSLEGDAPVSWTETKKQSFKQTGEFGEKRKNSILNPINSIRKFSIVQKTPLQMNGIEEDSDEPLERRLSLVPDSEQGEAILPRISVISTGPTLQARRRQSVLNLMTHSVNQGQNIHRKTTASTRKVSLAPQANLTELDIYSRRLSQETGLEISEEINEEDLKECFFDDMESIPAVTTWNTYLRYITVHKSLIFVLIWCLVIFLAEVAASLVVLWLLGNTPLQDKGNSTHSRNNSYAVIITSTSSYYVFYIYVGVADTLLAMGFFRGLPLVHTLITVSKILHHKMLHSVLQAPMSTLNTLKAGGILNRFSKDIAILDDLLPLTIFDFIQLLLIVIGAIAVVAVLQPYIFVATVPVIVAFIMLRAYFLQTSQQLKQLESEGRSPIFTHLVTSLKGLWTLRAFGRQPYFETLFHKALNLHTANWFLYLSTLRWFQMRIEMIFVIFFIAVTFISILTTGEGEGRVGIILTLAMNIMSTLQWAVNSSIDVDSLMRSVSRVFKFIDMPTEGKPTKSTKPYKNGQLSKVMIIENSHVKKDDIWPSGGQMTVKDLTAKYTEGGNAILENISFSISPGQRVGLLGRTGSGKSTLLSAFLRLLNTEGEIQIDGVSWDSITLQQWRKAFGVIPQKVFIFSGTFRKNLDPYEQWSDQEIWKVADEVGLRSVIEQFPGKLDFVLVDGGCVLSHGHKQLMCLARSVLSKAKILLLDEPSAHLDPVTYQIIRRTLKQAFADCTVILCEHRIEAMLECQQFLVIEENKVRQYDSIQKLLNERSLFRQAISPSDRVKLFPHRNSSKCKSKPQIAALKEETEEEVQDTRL
Compound,% Activation (ΔF508-CFTR [1]; [3]),EC50 (ΔF508-CFTR [1]; [4]),% Activation (ΔF508-CFTR [2]; [5]),EC50 (ΔF508-CFTR [2]; [6]),% Activation (ΔF508-CFTR [1]; [7]),EC50 (ΔF508-CFTR [1]; [8]),EC50 (ΔF508-CFTR [1]),EC50 (ΔF508-CFTR [2])
"COC1CCN(c2cc(C(=O)O)nc3c2c(C)nn3-c2ccccc2)CC1 [compound 143, 4-(4-methoxypiperidin-1-yl)-3-methyl-1-phenyl-1H-pyrazolo[3,4-b]pyridine-6-carboxylic acid]",109.45%,2290 nM,246.8%,2420 nM,,,,
"O=C1CN(c2cc(C(=O)O)nc3c2c(C2CCC2)nn3-c2ccccc2)CCN1 [compound 504, 3-cyclobutyl-4-(3-oxopiperazin-1-yl)-1-phenyl-1H-pyrazolo[3,4-b]pyridine-6-carboxylic acid]",,,138.9%,> 10000 nM,19.62%,> 10000 nM,,
"COC1CN(c2cc(C(=O)O)nc3c2c(C2CCC2)nn3-c2ccccc2)C1 [compound 542, 3-cyclobutyl-4-(3-methoxyazetidin-1-yl)-1-phenyl-1H-pyrazolo[3,4-b]pyridine-6-carboxylic acid]",,,290.6%,1780 nM,104.6%,1840 nM,,
"Cc1nn(-c2ccccc2)c2nc(C(=O)O)cc(N3CC[C@@H](F)C3)c12 [compound 298, 4-[(3R)-3-fluoropyrrolidin-1-yl]-3-methyl-1-phenyl-1H-pyrazolo[3,4-b]pyridine-6-carboxylic acid]",52.345%,2510 nM,206.45%,2440 nM,,,,
"CN(C1CCOCC1)C1CCN(c2cc(C(=O)O)nc3c2c(C2CCC2)nn3-c2ccc(F)cc2)CC1 [compound 854, 3-cyclobutyl-1-(4-fluorophenyl)-4-{4-[methyl(oxan-4-yl)amino]piperidin-1-yl}-1H-pyrazolo[3,4-b]pyridine-6-carboxylic acid]",,,380.7%,3330 nM,131.1%,2080 nM,,
"CC(C)c1nn(C2CCCCC2)c2nc(C(=O)O)cc(-c3ccc(N4CCC(C)(C#N)CC4)nc3)c12 [compound 203, 4-[6-(4-cyano-4-methylpiperidin-1-yl)pyridin-3-yl]-1-cyclohexyl-3-(propan-2-yl)-1H-pyrazolo[3,4-b]pyridine-6-carboxylic acid]",162.5%,843 nM,361.75%,756 nM,,,,
"O=C(O)c1cc(N2CCC(F)(CO)CC2)c2c(C3CCC3)nn(-c3ccccc3)c2n1 [compound 517, 3-cyclobutyl-4-[4-fluoro-4-(hydroxymethyl)piperidin-1-yl]-1-phenyl-1H-pyrazolo[3,4-b]pyridine-6-carboxylic acid]",,,303.2%,575 nM,82.63%,646 nM,,
"CC(C)c1nn(C2CCCCC2)c2nc(C(=O)O)cc(OCC3CCOCC3)c12 [compound 603, 1-cyclohexyl-4-[(oxan-4-yl)methoxy]-3-(propan-2-yl)-1H-pyrazolo[3,4-b]pyridine-6-carboxylic acid]",,,273.3%,870 nM,92.66%,1760 nM,,
"CC(C)c1nn(-c2cc(F)cc(F)c2)c2nc(C(=O)O)cc(-c3ccc(N(C)C4CCOCC4)cc3)c12 [compound 245, 1-(3,5-difluorophenyl)-4-{4-[methyl(oxan-4-yl)amino]phenyl}-3-(propan-2-yl)-1H-pyrazolo[3,4-b]pyridine-6-carboxylic acid]",267.15%,777 nM,508.37%,627 nM,,,,
"Cc1cccc(-n2nc(C(C)C)c3c(N4CCC(F)(F)CC4)cc(C(=O)O)nc32)c1 [compound 210, 4-(4,4-difluoropiperidin-1-yl)-1-(3-methylphenyl)-3-(propan-2-yl)-1H-pyrazolo[3,4-b]pyridine-6-carboxylic acid]",66.65%,1180 nM,261%,3340 nM,,,,
"COC1CCN(CC2CCN(c3cc(C(=O)O)nc4c3c(C3CCC3)nn4-c3ccccc3)CC2)CC1 [compound 841, 3-cyclobutyl-4-{4-[(4-methoxypiperidin-1-yl)methyl]piperidin-1-yl}-1-phenyl-1H-pyrazolo[3,4-b]pyridine-6-carboxylic acid]",,,457.1%,314 nM,225%,532 nM,,
"O=C(O)c1cc(N2CCC(O)CC2)c2c(C3CCC3)nn(-c3ccccc3)c2n1 [compound 501, 3-cyclobutyl-4-(4-hydroxypiperidin-1-yl)-1-phenyl-1H-pyrazolo[3,4-b]pyridine-6-carboxylic acid]",,,367.65%,353 nM,152.7%,629 nM,,
"CC(C)c1nn(-c2cccc(F)c2)c2nc(C(=O)O)cc(-c3ccc(N4CCOCC4)cc3)c12 [compound 242, 1-(3-fluorophenyl)-4-[4-(morpholin-4-yl)phenyl]-3-(propan-2-yl)-1H-pyrazolo[3,4-b]pyridine-6-carboxylic acid]",206.5%,603 nM,394.12%,338 nM,,,,
"CC(C)c1nn(-c2cccc(N3CCOCC3)c2)c2nc(C(=O)O)cc(-c3ccc(N(C)C4CCOCC4)cc3)c12 [compound 208, 4-{4-[methyl(oxan-4-yl)amino]phenyl}-1-[3-(morpholin-4-yl)phenyl]-3-(propan-2-yl)-1H-pyrazolo[3,4-b]pyridine-6-carboxylic acid]",413.75%,603 nM,673.2%,647 nM,,,,
"O=C(O)c1cc(OCCC2CC(F)(F)C2)c2c(C3CCC3)nn(-c3ccccc3)c2n1 [compound 477, 3-cyclobutyl-4-[2-(3,3-difluorocyclobutyl)ethoxy]-1-phenyl-1H-pyrazolo[3,4-b]pyridine-6-carboxylic acid]",,,266.3%,501 nM,97.78%,1020 nM,,
"CC1CN(C2CCN(c3cc(C(=O)O)nc4c3c(C3CCC3)nn4-c3ccccc3)CC2)CC(C)O1 (stereo not drawn) [compound 688, 3-cyclobutyl-4-[4-(2,6-dimethylmorpholin-4-yl)piperidin-1-yl]-1-phenyl-1H-pyrazolo[3,4-b]pyridine-6-carboxylic acid]",,,532.6%,247 nM,322.5%,247 nM,,
"O=C(O)c1cc(OC[C@@H]2CCCO2)c2c(C3CCC3)nn(-c3ccccc3)c2n1 [compound 480, 3-cyclobutyl-4-{[(2S)-oxolan-2-yl]methoxy}-1-phenyl-1H-pyrazolo[3,4-b]pyridine-6-carboxylic acid]",,,270.4%,364 nM,115.15%,862 nM,,
"CC(C)c1nn(-c2cccc(N(C)C)n2)c2nc(C(=O)O)cc(-c3ccc(N4CCOCC4)cc3)c12 [compound 267, 1-[6-(dimethylamino)pyridin-2-yl]-4-[4-(morpholin-4-yl)phenyl]-3-(propan-2-yl)-1H-pyrazolo[3,4-b]pyridine-6-carboxylic acid]",318.9%,807 nM,498.35%,412 nM,,,,
"Cc1nn(-c2ccccc2)c2nc(C(=O)O)cc(OC3CC4(COC4)C3)c12 [compound 344, 3-methyl-4-[(2-oxaspiro[3.3]heptan-6-yl)oxy]-1-phenyl-1H-pyrazolo[3,4-b]pyridine-6-carboxylic acid]",69.225%,2510 nM,218.25%,1770 nM,,,,
"CCCOCCN1CCN(c2cc(C(=O)O)nc3c2c(C2CCC2)nn3-c2ccccc2)CC1 [compound 555, 3-cyclobutyl-1-phenyl-4-[4-(2-propoxyethyl)piperazin-1-yl]-1H-pyrazolo[3,4-b]pyridine-6-carboxylic acid]",,,310.65%,169 nM,152%,331 nM,,
"O=C(O)c1cc(NCC2CCOCC2)c2c(C3CCC3)nn(-c3ccccc3)c2n1 [compound 590, 3-cyclobutyl-4-{[(oxan-4-yl)methyl]amino}-1-phenyl-1H-pyrazolo[3,4-b]pyridine-6-carboxylic acid]",,,310.45%,,141.3%,,2610 nM,2030 nM
"Cc1nn(-c2ccccc2)c2nc(C(=O)O)cc(N3CC4(CCCCC4)C3)c12 [compound 309, 4-(2-azaspiro[3.5]nonan-2-yl)-3-methyl-1-phenyl-1H-pyrazolo[3,4-b]pyridine-6-carboxylic acid]",67.305%,1330 nM,237.3%,1330 nM,,,,
"CN(C)c1ccc(-c2cc(C(=O)O)nc3c2c(C(C)(C)C)nn3C2CCCCC2)cc1 [compound 131, 3-tert-butyl-1-cyclohexyl-4-[4-(dimethylamino)phenyl]-1H-pyrazolo[3,4-b]pyridine-6-carboxylic acid]",153.75%,899 nM,388.7%,620 nM,,,,
"O=C(O)c1cc(OC2CN(C3CCCCC3)C2)c2c(C3CCC3)nn(-c3ccccc3)c2n1 [compound 599, 3-cyclobutyl-4-[(1-cyclohexylazetidin-3-yl)oxy]-1-phenyl-1H-pyrazolo[3,4-b]pyridine-6-carboxylic acid]",,,248.4%,376 nM,81.59%,357 nM,,
